Experiments:
[1] = Rat microsomal intrinsic clearance; type: in vitro ADME; conditions: second value of mouse/rat cell
[2] = Mouse liver microsomal intrinsic clearance; type: in vitro ADME
Protocol: Test compounds (0.5 μM) were incubated with female CD1 mouse liver microsomes (Xenotech LLC; 0.5 mg mL^–1 50 mM potassium phosphate buffer, pH 7.4), and the reaction started with the addition of excess NADPH (8 mg mL^–1 50 mM potassium phosphate buffer, pH 7.4). Immediately, at 0 min, and then at 3, 6, 9, 15, and 30 min, an aliquot (50 μL) of the incubation mixture was removed and mixed with acetonitrile (100 μL) to stop the reaction. The internal standard was added to all samples, the samples were centrifuged to sediment the precipitated protein, and the plates were then sealed prior to UPLC–MS/MS analysis using a Quattro Premier XE (Waters Corporation, USA). XLfit (IDBS, UK) was used to calculate the exponential decay and consequently the rate constant (k) from the ratio of the peak area of the test compound to the internal standard at each time point. The rate of intrinsic clearance (CLint) of each test compound was then calculated using the following calculation [drawing 3] where V (mL mg^–1 protein) is the incubation volume mg^–1 protein added and the microsomal protein yield is taken as 52.5 mg protein g^–1 liver. Verapamil (0.5 μM) was used as a positive control to confirm acceptable assay performance.

[3] = Mammalian cell counter screen (MRC-5); type: cell-based, human; conditions: human, MRC-5 fibroblasts; mean values; number of replicates in parentheses
Protocol: (§1) Drug sensitivity assays with BSF T. b. brucei “single marker” S427 and human MRC-5 fibroblasts were conducted as previously described.[43]

human MRC-5 fibroblasts = assay: Mammalian cell counter screen (MRC-5); type: cell-based; conditions: for SI: selectivity index (EC50 MRC5/EC50 T. brucei)
Protocol: as §1

[4] = tested on: BSF T. b. brucei “single marker” S427; assay: Drug sensitivity assay with bloodstream-form T. brucei; type: cell-based; conditions: for EC50: mean values, number of replicates in parentheses
Protocol: as §1

[5] = Mouse brain penetration (brain:blood ratio); type: in vivo, female NMRI mice; conditions: female, NMRI, mouse, brain and blood, 10 mg kg^–1; mice, bolus of test compound, total compound; read-out: brain/blood (B/B) ratio
Protocol: Medicines for HAT are required to treat both acute and chronic infections, where parasites pass through the blood/brain barrier and enter the CNS. With this in mind, mice were dosed with an […] bolus of our test compounds, and compound concentrations in blood and brain were determined by UPLC–MS/MS. […] The brain fraction unbound was 0.0063 for 16 and 0.0313 for 38. Brain penetration of the series as a whole tracked with the generally accepted rules of CNS penetration, with a lower topological PSA (TPSA) and molecular weight compounds having an increased B/B ratio (Table S2 and Figure S1). However, the link between log P and the B/B ratio was slightly less convincing. […] This difference could be explained by 18 being a substrate for the P-glycoprotein efflux pump.
Each compound was dosed as an IV bolus at 10 mg kg^–1 dissolved in 15% solutol/Milli-Q (dose volume 10 mL kg^–1) to female NMRI mice (n = 3). At 30 min following the IV bolus of the test compound, mice (n = 3/time point) were placed under terminal anesthesia with isoflurane. A blood sample was taken by cardiac puncture and added to two volumes of distilled water, and the brain was removed. […] For each mouse at each time point, the concentration in the brain (ng g^–1) was divided by the concentration in blood (ng mL^–1) to give a brain: blood ratio.

Compound	CLint (rat) [1]	CLint (mouse) [2]	EC50 [3]	SI (human MRC-5 fibroblasts)	EC50 ([4]; Trypanosoma brucei)	reduction (loss, drop off) in potency against T. brucei relative to parent analogue ([4]; SAR comparison)	Kp at 30 min [5]	improvement in activity against T. brucei relative to parent analogue ([4]; SAR comparison)	EC50 (human MRC-5 fibroblasts; mean values, number of replicates in parentheses, read-out: MRC-5 EC50)	EC50 [4]
COc1ccc(Nc2nc(N)c(C(=O)COC(C)C(F)(F)F)s2)cn1 (centres unmarked) [Compound 57, 1-(4-Amino-2-((6-methoxypyridin-3-yl)amino)thiazol-5-yl)-2-((1,1,1-trifluoropropan-2-yl)oxy)ethanone]	2.4 mL·min/g	9.0 mL·min/g	> 50000 nM	714	70 nM	–	–	–	–	–
Nc1nc(Nc2ccc(F)c(F)c2)sc1C(=O)CCN1CCOCC1 [Compound 64, 1-(4-Amino-2-((3,4-difluorophenyl)amino)thiazol-5-yl)-3-morpholinopropan-1-one]	8.3 mL·min/g	1.2 mL·min/g	29000 nM	6	5000 nM	> 110 fold	–	–	–	–
CC(OCC(=O)c1sc(Nc2ccc(F)c(F)c2)nc1N)C(F)(F)F (centres unmarked) [Compound 50, 1-(4-Amino-2-((3,4-difluorophenyl)amino)thiazol-5-yl)-2-((1,1,1-trifluoropropan-2-yl)oxy)ethanone]	2.9 mL·min/g	7.4 mL·min/g	> 50000 nM	8333	6 nM	–	–	–	–	–
Nc1nc(Nc2ccc(F)c(F)c2)sc1C(=O)CN1CCCC(F)(F)C1 [Compound 67, 1-(4-Amino-2-((3,4-difluorophenyl)amino)thiazol-5-yl)-2-(3,3-difluoropiperidin-1-yl)ethanone]	20 mL·min/g	33 mL·min/g	5000 nM	250	20 nM	–	–	–	–	–
Nc1nc(Nc2ccc(F)c(F)c2)sc1C(=O)CN1CCCC1 [Compound 58, 1-(4-Amino-2-((3,4-difluorophenyl)amino)thiazol-5-yl)-2-(pyrrolidin-1-yl)ethanone]	2.2 mL·min/g	2.1 mL·min/g	48000 nM	533	90 nM	–	–	–	–	–
Nc1nc(Nc2ccc(F)c(F)c2)sc1C(=O)COC1CCC1 [Compound 46, 1-(4-Amino-2-((3,4-difluorophenyl)amino)thiazol-5-yl)-2-cyclobutoxyethanone]	8.2 mL·min/g	9 mL·min/g	> 50000 nM	2500	20 nM	–	–	–	–	–
Nc1nc(Nc2ccc(F)c(F)c2)sc1C(=O)CN1CCCCC1 [Compound 61, 1-(4-Amino-2-((3,4-difluorophenyl)amino)thiazol-5-yl)-2-(piperidin-1-yl)ethanone]	6.7 mL·min/g	7.7 mL·min/g	49000 nM	816	60 nM	–	–	–	–	–
CC1CCCN1CC(=O)c1sc(Nc2ccc(F)c(F)c2)nc1N (centres unmarked) [Compound 59, 1-(4-Amino-2-((3,4-difluorophenyl)amino)thiazol-5-yl)-2-(2-methylpyrrolidin-1-yl)ethanone]	3.1 mL·min/g	5.2 mL·min/g	> 50000 nM	1000	50 nM	–	–	–	–	–
CC(OCC(=O)c1sc(Nc2ccc3c(c2)OC(F)(F)O3)nc1N)C(F)(F)F (centres unmarked) [Compound 53, 1-(4-Amino-2-((2,2-difluorobenzo[d][1,3]dioxol-5-yl)amino)thiazol-5-yl)-2-((1,1,1-trifluoropropan-2-yl)oxy)ethan-1-one]	1.2 mL·min/g	5 mL·min/g	> 50000 nM	1667	30 nM	–	–	–	–	–
Nc1nc(Nc2ccc(F)c(F)c2)sc1C(=O)CN1CCOCC1 [Compound 62, 1-(4-Amino-2-((3,4-difluorophenyl)amino)thiazol-5-yl)-2-morpholinoethanone]	9 mL·min/g	4.7 mL·min/g	> 50000 nM	–	40 nM	–	–	–	–	–
Nc1nc(Nc2ccc(F)c(F)c2)sc1C(=O)CN1CCC(F)(F)CC1 [Compound 68, 1-(4-Amino-2-((3,4-difluorophenyl)amino)thiazol-5-yl)-2-(4,4-difluoropiperidin-1-yl)ethanone]	11 mL·min/g	9.3 mL·min/g	47000 nM	2350	20 nM	–	–	–	–	–
Nc1nc(Nc2ccc(F)c(F)c2)sc1C(=O)CN1C[C@H]2CC[C@@H](C1)O2 [Compound 66, 1-(4-Amino-2-((3,4-difluorophenyl)amino)thiazol-5-yl)-2-((1R,5S)-8-oxa-3-azabicyclo[3.2.1]octan-3-yl)ethanone]	15.1 mL·min/g	8.8 mL·min/g	> 50000 nM	455	110 nM	–	–	–	–	–
Nc1nc(Nc2ccc(F)c(F)c2)sc1C(=O)CN1C[C@@H]2C[C@H]1CO2 [Compound 65, 1-(4-Amino-2-((3,4-difluorophenyl)amino)thiazol-5-yl)-2-((1S,4S)-2-oxa-5-azabicyclo[2.2.1]heptan-5-yl)ethanone]	4.9 mL·min/g	4.1 mL·min/g	> 50000 nM	1250	40 nM	–	–	–	–	–
CC(C)C(=O)c1sc(NC2CCCCC2)nc1N [Compound 18, 1-(4-Amino-2-(cyclohexylamino)thiazol-5-yl)-2-methylpropan-1-one]	–	0.5 mL·min/g	10000 nM	4	2400 nM	–	0.06	–	–	–
CC(C)OCC(=O)c1sc(Nc2ccc(F)c(F)c2)nc1N [Compound 42, 1-(4-Amino-2-((3,4-difluorophenyl)amino)thiazol-5-yl)-2-isopropoxyethanone]	3.6 mL·min/g	9.3 mL·min/g	> 50000 nM	2500	20 nM	–	–	10 fold	–	–
Nc1nc(Nc2ccc(F)c(F)c2)sc1C(=O)COC1CC(F)(F)C1(F)F (centres unmarked) [Compound 47, 1-(4-Amino-2-((3,4-difluorophenyl)amino)thiazol-5-yl)-2-(2,2,3,3-tetrafluorocyclobutoxy)ethanone]	4.4 mL·min/g	5.2 mL·min/g	29000 nM	2900	10 nM	–	–	–	–	–
1-(4-Amino-2-((3,4-difluorophenyl)amino)thiazol-5-yl)-2-((2S,6R)-2,6-dimethylmorpholino)ethanone [Compound 63]	4.9 mL·min/g	8.1 mL·min/g	–	1000	–	–	–	–	> 50000 nM	50 nM
CC(OCC(=O)c1sc(Nc2ccc(C(F)(F)F)cc2)nc1N)C(F)(F)F (centres unmarked) [Compound 52, 1-(4-Amino-((4-(trifluoromethyl)phenyl)amino)thiazol-5-yl)-2-((1,1,1-trifluoropropan-2-yl)oxy)ethanone]	0.5 mL·min/g	2.3 mL·min/g	38000 nM	543	70 nM	10 fold	–	–	–	–
CC(C)CC(=O)c1sc(Nc2ccc(F)cc2)nc1N [Compound 36, 1-(4-Amino-2-((4-fluorophenyl)amino)thiazol-5-yl)-3-methylbutan-1-one]	–	8.0 mL·min/g	> 50000 nM	>455	110 nM	–	–	–	–	–
Nc1nc(Nc2ccc(F)c(F)c2)sc1C(=O)CN1CCCC1C(F)(F)F (centres unmarked) [Compound 60, 1-(4-Amino-2-((3,4-difluorophenyl)amino)thiazol-5-yl)-2-(2-(trifluoromethyl)pyrrolidin-1-yl)ethanone]	10 mL·min/g	26 mL·min/g	32000 nM	1600	20 nM	–	–	–	–	–
